{"source": "patent US11136296B2", "about": "“Substituted N-arylethyl-2-arylquinoline-4-carboxamides and use thereof” (Bayer Aktiengesellschaft, priority 2017, dated 2021)"}
{"target": "FP receptor (Homo sapiens (Human), UniProt P43088)", "sequence (P43088 whole entry)": "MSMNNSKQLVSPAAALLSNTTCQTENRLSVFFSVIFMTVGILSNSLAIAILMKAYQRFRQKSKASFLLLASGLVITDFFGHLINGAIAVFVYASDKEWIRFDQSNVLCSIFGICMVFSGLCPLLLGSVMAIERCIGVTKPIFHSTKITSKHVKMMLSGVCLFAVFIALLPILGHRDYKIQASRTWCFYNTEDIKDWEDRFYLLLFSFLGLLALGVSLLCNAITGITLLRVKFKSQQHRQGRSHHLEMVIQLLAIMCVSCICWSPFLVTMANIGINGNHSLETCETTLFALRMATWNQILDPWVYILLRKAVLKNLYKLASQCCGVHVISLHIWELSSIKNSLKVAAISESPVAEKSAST", "test": "In vitro test of inhibition of human FP receptor activity (PGF2α-induced calcium flux in FP-expressing CHEM1 cells)", "assay_type": "cell-based", "settings": "PGF2α-induced (2 nM) calcium flux in FP-expressing CHEM1 cells; some as mean values from multiple determinations", "text": "Table 1 below lists the IC50 values from this assay for individual working examples of the invention (some as mean values from multiple independent individual determinations): […]", "units": {"IC50": "nM"}}
{"smiles": "Cc1c(-c2ccccc2)nc2ccc(Br)cc2c1C(=O)NC(C)C(CC(=O)O)c1ccccc1Cl", "note": "(racemic) [Example 148, (+/−)-4-{[(6-Bromo-3-methyl-2-phenylquinolin-4-yl)carbonyl]amino}-3-(2-chlorophenyl)pentanoic Acid]", "IC50": 42}
{"smiles": "Cc1c(-c2ccccc2)nc2ccc(Br)cc2c1C(=O)NCC(CCC(=O)O)c1ccccc1Cl", "note": "(racemic) [Example 151, (+/−)-5-{[(6-Bromo-3-methyl-2-phenylquinolin-4-yl)carbonyl]amino}-4-(2-chlorophenyl)pentanoic Acid]", "IC50": 7.8}
{"smiles": "Cc1c(-c2ccccc2)nc2ccc(Br)cc2c1C(=O)NCC(C)(CCC(=O)O)c1ccccc1Cl", "note": "(racemic) [Example 154, (+/−)-5-{[(6-Bromo-3-methyl-2-phenylquinolin-4-yl)carbonyl]amino}-4-(2-chlorophenyl)-4-methylpentanoic Acid]", "IC50": 15}
{"smiles": "Cc1c(-c2ccccc2)nc2ccc(Br)cc2c1C(=O)NCC(CCC(=O)O)c1c(F)cccc1Cl", "note": "(racemic) [Example 157, (+/−)-5-{[(6-Bromo-3-methyl-2-phenylquinolin-4-yl)carbonyl]amino}-4-(2-chloro-6-fluorophenyl)pentanoic Acid]", "IC50": 3.7}
{"smiles": "Cc1ccccc1C(CCC(=O)O)CNC(=O)c1c(C)c(-c2ccccc2)nc2ccc(Br)cc12", "note": "(racemic) [Example 160, (+/−)-5-{[(6-Bromo-3-methyl-2-phenylquinolin-4-yl)carbonyl]amino}-4-(2-methylphenyl)pentanoic Acid]", "IC50": 13}
{"smiles": "Cc1c(-c2ccccc2)nc2ccc(Br)cc2c1C(=O)NCC(CCC(=O)O)c1cc(F)ccc1Cl", "note": "(racemic) [Example 163, (+/−)-5-{[(6-Bromo-3-methyl-2-phenylquinolin-4-yl)carbonyl]amino}-4-(2-chloro-5-fluorophenyl)pentanoic Acid]", "IC50": 8.7}
{"smiles": "COc1ccccc1C(CCC(=O)O)CNC(=O)c1c(C)c(-c2ccccc2)nc2ccc(Br)cc12", "note": "(racemic) [Example 166, (+/−)-5-{[(6-Bromo-3-methyl-2-phenylquinolin-4-yl)carbonyl]amino}-4-(2-methoxyphenyl)pentanoic Acid]", "IC50": 6.1}
{"smiles": "Cc1c(-c2ccccc2)nc2ccc(Br)cc2c1C(=O)NCC(C)(CCC(=O)O)c1cc(F)ccc1Cl", "note": "(racemic) [Example 169, (+/−)-5-{[(6-Bromo-3-methyl-2-phenylquinolin-4-yl)carbonyl]amino}-4-(2-chloro-5-fluorophenyl)-4-methylpentanoic Acid]", "IC50": 26}
{"smiles": "Cc1c(-c2ccccc2)nc2ccc(Br)cc2c1C(=O)NCC(CCC(=O)O)c1ccccc1F", "note": "(racemic) [Example 175, (+/−)-5-{[(6-Bromo-3-methyl-2-phenylquinolin-4-yl)carbonyl]amino}-4-(2-fluorophenyl)pentanoic Acid]", "IC50": 15}
{"smiles": "Cc1c(-c2ccccc2)nc2ccc(Br)cc2c1C(=O)NCC(CCC(=O)O)c1ccccc1OC(F)F", "note": "(racemic) [Example 178, (+/−)-5-{[(6-Bromo-3-methyl-2-phenylquinolin-4-yl)carbonyl]amino}-4-[2-(difluoromethoxy)phenyl]pentanoic Acid]", "IC50": 6.5}
{"smiles": "Cc1c(-c2ccccc2)nc2ccc(Br)cc2c1C(=O)NCC(CCC(=O)O)c1c(F)cccc1F", "note": "(racemic) [Example 181, (+/−)-5-{[(6-Bromo-3-methyl-2-phenylquinolin-4-yl)carbonyl]amino}-4-(2,6-difluorophenyl)pentanoic Acid]", "IC50": 9.2}
{"smiles": "Cc1c(-c2ccccc2)nc2ccc(Br)cc2c1C(=O)NCC(CCC(=O)O)c1cccc(F)c1Cl", "note": "(racemic) [Example 184, (+/−)-5-{[(6-Bromo-3-methyl-2-phenylquinolin-4-yl)carbonyl]amino}-4-(2-chloro-3-fluorophenyl)pentanoic Acid]", "IC50": 7.7}
{"smiles": "Cc1c(-c2ccccc2)nc2ccc(Br)cc2c1C(=O)NCC(c1ccccc1Cl)N(C)CC(=O)O", "note": "(racemic) [Example 187, (+/−)-N-[2-{[(6-Bromo-3-methyl-2-phenylquinolin-4-yl)carbonyl]amino}-1-(2-chlorophenyl)ethyl]-N-methylglycine]", "IC50": 36}
{"smiles": "Cc1c(-c2ccccc2)nc2ccc(Br)cc2c1C(=O)NCC(NCC(=O)O)c1ccccc1Cl", "note": "(racemic) [Example 190, (+/−)-N-[2-{[(6-Bromo-3-methyl-2-phenylquinolin-4-yl)carbonyl]amino}-1-(2-chlorophenyl)ethyl]glycine]", "IC50": 67}
{"smiles": "Cc1c(-c2ccccc2)nc2ccc(Br)cc2c1C(=O)NCC(OCC(=O)O)c1ccccc1Cl", "note": "(racemic) [Example 191, (+/−)-[2-{[(6-Bromo-3-methyl-2-phenylquinolin-4-yl)carbonyl]amino}-1-(2-chlorophenyl)ethoxy]acetic Acid]", "IC50": 100}
{"smiles": "Cc1c(-c2ccccc2)nc2ccc(Br)cc2c1C(=O)NCC(SCC(=O)O)c1ccccc1Cl", "note": "(racemic) [Example 194, (+/−)-{[2-{[(6-Bromo-3-methyl-2-phenylquinolin-4-yl)carbonyl]amino}-1-(2-chlorophenyl)ethyl]sulfanyl}acetic Acid]", "IC50": 7.9}
{"smiles": "Cc1c(-c2ccccc2)nc2ccc(Br)cc2c1C(=O)NCC(c1ccccc1Cl)S(=O)(=O)CC(=O)O", "note": "(racemic) [Example 197, (+/−)-{[2-{[(6-Bromo-3-methyl-2-phenylquinolin-4-yl)carbonyl]amino}-1-(2-chlorophenyl)ethyl]sulfonyl}acetic Acid]", "IC50": 21}
{"smiles": "Cc1c(-c2ccccc2)nc2ccc(Br)cc2c1C(=O)NCC(CCC(=O)O)c1c(Cl)ccc(F)c1F", "note": "(racemic) [Example 200, (+/−)-5-{[(6-Bromo-3-methyl-2-phenylquinolin-4-yl)carbonyl]amino}-4-(6-chloro-2,3-difluorophenyl)pentanoic Acid]", "IC50": 3.6}
{"smiles": "Cc1c(-c2ccccc2)nc2ccc(Br)cc2c1C(=O)NCC(CCC(=O)O)c1ccccc1C(F)(F)F", "note": "(racemic) [Example 203, (+/−)-5-{[(6-Bromo-3-methyl-2-phenylquinolin-4-yl)carbonyl]amino}-4-[2-(trifluoromethyl)phenyl]pentanoic Acid]", "IC50": 7.6}
{"smiles": "Cc1ccc(F)cc1C(CCC(=O)O)CNC(=O)c1c(C)c(-c2ccccc2)nc2ccc(Br)cc12", "note": "(racemic) [Example 206, (+/−)-5-{[(6-Bromo-3-methyl-2-phenylquinolin-4-yl)carbonyl]amino}-4-(5-fluoro-2-methylphenyl)pentanoic Acid]", "IC50": 13}
{"smiles": "Cc1c(-c2ccccc2)nc2ccc(Br)cc2c1C(=O)NCC(CCC(=O)O)c1ccccc1OC(F)(F)F", "note": "(racemic) [Example 209, (+/−)-5-{[(6-Bromo-3-methyl-2-phenylquinolin-4-yl)carbonyl]amino}-4-[2-(trifluoromethoxy)phenyl]pentanoic Acid]", "IC50": 1.8}
{"smiles": "O=C(O)CCC(CNC(=O)c1c(Cl)c(-c2ccccc2)nc2ccc(Br)cc12)c1ccccc1Cl", "note": "(racemic) [Example 212, (+/−)-5-{[(6-Bromo-3-chloro-2-phenylquinolin-4-yl)carbonyl]amino}-4-(2-chlorophenyl)pentanoic Acid]", "IC50": 6.6}
{"smiles": "O=C(O)CCC(CNC(=O)c1c(Cl)c(-c2ccccc2)nc2ccc(Br)cc12)c1ccccc1C(F)(F)F", "note": "(racemic) [Example 215, (+/−)-5-{[(6-Bromo-3-chloro-2-phenylquinolin-4-yl)carbonyl]amino}-4-[2-(trifluoromethyl)phenyl]pentanoic Acid]", "IC50": 5.4}
